A short description of data set [1]: Cytotoxicity against LPS-stimulated […] cells assessed as cell viability pretreated for 2 hrs followed by LPS-stimulation after 16 hrs by alamar blue assay relative to control. It counts as cell-based. Also on record: concentration or dose not given beside the values. The following applies: LPS-stimulated RAW264.7 cells; read-out: Activity. In general terms: The colour change of resazurin is a common sign of viable cells or microbes.

Data set [2] has as its system RAW264.7. In words: Cytotoxicity against LPS-stimulated […] cells assessed as reduction in cell viability at 100 uM pretreated for 2 hrs followed by LPS-stimulation after 16 hrs by alamar blue assay. The data set is classed as cell-based. To be noted: raw264.7, 16 h.
Data set [3] has as its system RAW264.7. In words: Inhibition of LPS-stimulated nitric oxide production in […] cells pretreated for 2 hrs followed by LPS-stimulation after 16 hrs by Griess assay. It counts as functional, cell-based. To be noted: Mus musculus. (The Griess reaction detects nitrite, a stable product of nitric oxide.)
Data set [4] concerns RAW264.7. In words: Inhibition of LPS-stimulated nitric oxide production in […] cells at 100 uM pretreated for 2 hrs followed by LPS-stimulation after 16 hrs by Griess assay relative to control. It counts as functional. The following applies: Mus musculus.

The values that follow come from ChEMBL document CHEMBL4052718, “Stereospecific inhibition of nitric oxide production in macrophage cells by flavanonols: Synthesis and the structure-activity relationship. Part 2” (Bioorg Med Chem, 2017).

For the compound `COc1ccc2c(c1)O[C@@H](c1cccc(O)c1O)[C@H](O)C2=O`, in data set [1], the viability at 16 h is no less than 100%. For the same compound, the Activity result in the data set with RAW264.7 [2] was “Non-Toxic”. In the data set with RAW264.7 [3], the IC50 (in general, the point on the concentration scale where inhibition reaches its midpoint) came out at 30.3 µM.
With `COc1cc(OC)c2c(c1)OC(c1cccc(O)c1O)C(O)C2=O` (racemic), the inhibition (in general, the percentage by which the read-out fell short of the control) at 100 µM in the data set on RAW264.7 [4] was 58%. The viability at 16 h in data set [1] is no less than 100%. In the data set with RAW264.7 [2], the Activity result was “Non-Toxic”. The IC50 in the data set with RAW264.7 [3] is 57.6 µM.
As for `COc1ccc2c(c1O)O[C@@H](c1cccc(O)c1O)[C@H](O)C2=O`, in data set [1], the viability at 16 h is no less than 100%. Also, the Activity entry with RAW264.7 [2] is “Non-Toxic”. Moreover, the IC50 in the data set with RAW264.7 [3] is 88.5 µM.
On to `Cc1ccc2c(c1)C(=O)C(O)C(c1cccc(O)c1O)O2` (racemic), for which, in data set [1], the viability at 16 h was no less than 100%. Also, the Activity result with RAW264.7 [2] was “Non-Toxic”. The IC50 with RAW264.7 [3] is 45.3 µM.
Take `O=C1c2c(O)cccc2O[C@@H](c2cccc(O)c2O)[C@@H]1O`: the viability at 16 h in data set [1] is no less than 100%. Also, the Activity result with RAW264.7 [2] is reported as “Non-Toxic”. For the same compound, in the data set with RAW264.7 [3], the half-maximal inhibitory concentration (IC50) was greater than 100 µM.
On to `COc1ccc2c(c1)O[C@H](c1cccc(O)c1O)[C@@H](O)C2=O`, for which the viability at 16 h in data set [1] was no less than 100%. For the same compound, in the data set with RAW264.7 [2], the Activity entry is recorded as “Non-Toxic”. Besides, the IC50 in the data set with RAW264.7 [3] was 24.6 µM.
Regarding `O=C1c2ccc(O)cc2O[C@@H](c2cccc(O)c2O)[C@@H]1O`, the viability at 16 h in data set [1] was no less than 100%. For the same compound, the Activity result in the data set on RAW264.7 [2] is given as “Non-Toxic”. The IC50 in the data set on RAW264.7 [3] was greater than 100 µM.
For `COc1cc2c(cc1OC)C(=O)[C@H](O)[C@@H](c1cccc(O)c1O)O2`, in the data set with RAW264.7 [4], the inhibition at 100 µM was 93%. For the same compound, in data set [1], the viability at 16 h was no less than 100%. For the same compound, the Activity result in the data set on RAW264.7 [2] is on record as “Non-Toxic”. For the same compound, the half-maximal inhibitory concentration (IC50) with RAW264.7 [3] stood at 50.3 µM.
With `COc1ccc2c(c1)C(=O)[C@H](O)[C@@H](c1cccc(O)c1O)O2`, the viability at 16 h in data set [1] was no less than 100%. In addition, the Activity result in the data set with RAW264.7 [2] is given as “Non-Toxic”. Further, the IC50 with RAW264.7 [3] is greater than 100 µM.
On to `Cc1cc2c(cc1C)C(=O)C(O)C(c1cccc(O)c1O)O2` (racemic), for which the viability at 16 h in data set [1] is no less than 100%. The Activity entry in the data set with RAW264.7 [2] is “Non-Toxic”. For the same compound, in the data set on RAW264.7 [3], the IC50 stood at 20.7 µM.
On to `COc1ccc2c(c1O)O[C@H](c1cccc(O)c1O)[C@@H](O)C2=O`, for which the inhibition at 100 µM in the data set on RAW264.7 [4] is 93%. Moreover, the viability at 16 h in data set [1] was no less than 100%. Also, the Activity result in the data set with RAW264.7 [2] was “Non-Toxic”. Moreover, in the data set on RAW264.7 [3], the IC50 came to 49.7 µM.
As to `O=C1c2ccc(O)c(O)c2O[C@H](c2cccc(O)c2O)[C@H]1O`, in the data set on RAW264.7 [4], the inhibition at 100 µM is 95%. In data set [1], the viability at 16 h was no less than 100%. The Activity result in the data set with RAW264.7 [2] was “Non-Toxic”. Further, in the data set on RAW264.7 [3], the 50% inhibitory concentration (IC50) was found to be 17 µM.
In the case of `O=C1c2ccccc2O[C@H](c2cccc(O)c2O)[C@H]1O`, the viability at 16 h in data set [1] was no less than 100%. Also, the Activity result in the data set on RAW264.7 [2] is “Non-Toxic”. The IC50 in the data set with RAW264.7 [3] was greater than 100 µM.
For `COc1cc2c(cc1OC)C(=O)[C@@H](O)[C@H](c1cccc(O)c1O)O2` the same measures were no less than 100%, “Non-Toxic” and greater than 100 µM.
Take `O=C1c2ccc(O)c(O)c2O[C@@H](c2cccc(O)c2O)[C@@H]1O`: in the data set on RAW264.7 [4], the inhibition at 100 µM was 0%. The viability at 16 h in data set [1] is no less than 100%. In addition, in the data set on RAW264.7 [2], the Activity result was “Non-Toxic”. The half-maximal inhibitory concentration (IC50) in the data set on RAW264.7 [3] was greater than 100 µM.
As for `COc1cc(OC)c2c(c1)O[C@H](c1cccc(O)c1O)[C@@H](O)C2=O`, in the data set with RAW264.7 [4], the inhibition at 100 µM came out at 70%.
In the case of `O=C1c2c(O)cccc2O[C@H](c2cccc(O)c2O)[C@H]1O`, in data set [1], the viability at 16 h was no less than 100%. The Activity entry in the data set with RAW264.7 [2] was “Non-Toxic”. For the same compound, in the data set on RAW264.7 [3], the IC50 was found to be 77.7 µM.
With `O=C1c2cc(O)ccc2O[C@@H](c2cccc(O)c2O)[C@@H]1O`, the viability at 16 h in data set [1] is no less than 100%. The Activity result in the data set on RAW264.7 [2] is recorded as “Non-Toxic”. Moreover, the IC50 in the data set on RAW264.7 [3] is greater than 100 µM.
In the same order, the values of `O=C1c2cc(O)ccc2O[C@H](c2cccc(O)c2O)[C@H]1O` are no less than 100%, “Non-Toxic” and greater than 100 µM.
In the same order, the values of `Cc1ccc2c(c1)OC(c1cccc(O)c1O)C(O)C2=O` (racemic) are no less than 100%, “Non-Toxic” and 31.8 µM.
In the same order, the values of `COc1ccc2c(c1)C(=O)[C@@H](O)[C@H](c1cccc(O)c1O)O2` are no less than 100%, “Non-Toxic” and greater than 100 µM.
In the case of `O=C1c2ccccc2O[C@@H](c2cccc(O)c2O)[C@@H]1O`, the viability at 16 h in data set [1] is no less than 100%. Further, the Activity result in the data set on RAW264.7 [2] is given as “Non-Toxic”. Also, the IC50 in the data set with RAW264.7 [3] is greater than 100 µM.
On to `O=C1c2ccc(O)cc2O[C@H](c2cccc(O)c2O)[C@H]1O`, for which, in the data set with RAW264.7 [4], the inhibition at 100 µM was determined as 70%. Besides, in data set [1], the viability at 16 h was no less than 100%. Besides, the Activity result in the data set with RAW264.7 [2] is “Non-Toxic”. For the same compound, the IC50 with RAW264.7 [3] is 70.7 µM.
